Measurements from patent US8470363B2, “Antihypertensive pharmaceutical composition” (Shihuida Pharmaceuticals Group (JILIN) Ltd., priority 2010, dated 2013).

Experiments:
[1] = tested on: spontaneous hypertension SHR rats; assay: Edema side effect in the SHR rat blood pressure test; assay type: in vivo; details: intragastric
Description: (§1) Experiment method: 50 health spontaneous hypertension SHR rats (female to male 1:1, weight 200-240 g) were equally divided into 5 groups according to the level of the hypertension (the specific grouping method is as shown in Table 3), and intragastrically administrated with the medicine. For the blood pressure of the rate, the systolic pressure at the tail artery of the rat when being wake and quite was indirectly measured by an electronic blood pressure meter through the tail volume method respectively before administration and at the end of one, two, three, and four weeks after administration.

[2] = tested on: spontaneous hypertension SHR rats; assay: Blood pressure depressing test in rats (tail artery systolic pressure, tail volume method); assay type: in vivo, rat; details: for systolic pressure at the tail artery, before administration: baseline before administration, n=10 per group; for antihypertensive effect compared with the blank model group / systolic pressure at the tail artery, 1 week after administration / systolic pressure at the tail artery, 2 weeks after administration / systolic pressure at the tail artery, 3 weeks after administration / systolic pressure at the tail artery, 4 weeks after administration: intragastric; for antihypertensive effect compared with the blank model group: doses as in Table 3; for systolic pressure at the tail artery, 1 week after administration / systolic pressure at the tail artery, 2 weeks after administration / systolic pressure at the tail artery, 3 weeks after administration / systolic pressure at the tail artery, 4 weeks after administration: levamlodipine benzenesulfonate 5 mg/kg·d, indapamide 5 mg/kg·d, compound low-dose 2.5+0.5 mg/kg·d, compound high-dose 2.5+2.5 mg/kg·d
Description: as §1, with “administration. [table]” for “administration.”

[3] = background statement, species not given; cited from earlier work

| Molecule | occurrence of edema side effect ([1]; doses as in Table 3, up to 4 weeks) | systolic pressure at the tail artery, before administration [2] | antihypertensive effect compared with the blank model group [2] | systolic pressure at the tail artery, 1 week after administration [2] | systolic pressure at the tail artery, 2 weeks after administration [2] | systolic pressure at the tail artery, 3 weeks after administration [2] | systolic pressure at the tail artery, 4 weeks after administration [2] | half-life [3] | edema incidence rate ([1]; 5 mg levamlodipine benzenesulfonate/kg·d, up to 4 weeks) |
| --- | --- | --- | --- | --- | --- | --- | --- | --- | --- |
| CC1Cc2ccccc2N1NC(=O)c1ccc(Cl)c(S(N)(=O)=O)c1 (stereo not drawn) [Indapamide, indapamide] | no edema occurred | 27.02 ± 1.39 KPa | significant antihypertensive effect | 26.88 ± 1.38 Kpa | 25.85 ± 1.38 KPa | 25.56 ± 1.35 KPa | 25.36 ± 1.36 KPa | 17 h | – |
| levamlodipine benzenesulfonate | – | 26.96 ± 1.29 KPa | significant antihypertensive effect | 26.79 ± 1.31 Kpa | 25.33 ± 1.26 KPa | 24.55 ± 1.28 KPa | 23.87 ± 1.28 KPa | – | 10% |
